Several values for one entry are separate records, joined by “and”; a condition that tells them apart may be missing. Equal entries are not always repeated.
Tests used:
[1] = system: Bovine Papillomavirus Type 1 (BPV-1); assay: Inhibition of BPV-1 transformation of C127 mouse epithelial cells: exposure of cells pretreated with virus to drug; assay type: cell-based; conditions: CTC-96 5 μg/ml added 5 hours after virus; counted on day 12; duplicate values
Procedure: (§1) Experiments were performed to determine if CTC-96™ can inactivate the ability of bovine papillomavirus type 1 (BPV-1) to morphologically transform C127 mouse epithelial cells in culture. Cell-free stocks of BPV-1 were treated with CTC-96™ or placebo. In order to detect the transforming ability of BPV-1, sub-confluent cultures of C127 mouse cells are infected with a standardized inoculate of BPV-1. For the positive controls, stock virus was added to the culture medium present on the cells. The presence of morphologically transformed foci was counted after 2 weeks and then again at 3 weeks. Controls included non-infected cells (with or without drug) and untreated BPV-1.
To further evaluate the time course of interaction between CTC-96™ and Papillomavirus the following experiment was performed. Virus was put on C127 mouse epithelial cells in culture at time 0 and incubated for 5 hours. Medium was then removed and replaced with medium plus drug. Cells were then re-fed every 2 days and the experiments counted on day 12.

[2] = system: Bovine Papillomavirus Type 1 (BPV-1); assay: Inhibition of BPV-1 transformation of C127 mouse epithelial cells: pretreatment and post-treatment combined; assay type: cell-based
Procedure: as §1
To further clarify the dynamics of CTC-96™ Papillomavirus interaction an experiment was performed to combine exposure of virus to the drug prior to cellular infection and exposure of infected cells to the drug. For this purpose BPV-1 was incubated with either CTC-96™ or placebo, diluted and then added to C127 Mouse Epithelial Cells in culture with the addition of CTC-96™ or placebo (Table 11). Addition of 10 μg/ml or 20 μg/ml CTC-96™ to the cell cultures was toxic to the cells. […] Pre-treatment with 50 μg/ml CTC-96™ but not placebo halved the foci number in the normal medium post-treatment control. Thus a small microbicidal effect is probable even at these low concentrations of CTC-96™. The main activity at these concentrations, however, is post-infection.

[3] = system: HPV-11; assay: Therapeutic activity of CTC-96 ointment on human condylomas induced by HPV-11, HPV-11-infected external human xenograft SCID mouse model; assay type: in vivo, SCID mice; conditions: for Graft Size Growth, Means ± SD: thrice a week for 6 weeks on the graft
Procedure: Two different dose levels of CTC-96™ (1%, 0.1%) in an ointment formulation and the vehicle alone were evaluated. SCID mice were grafted on each side of the dorsum with an HPV-11-infected foreskin fragment. The HPV-11-infected grafts were left to grow for 6 weeks before treatment was started and continued for 6 weeks. During the treatment phase, the drug was administered thrice a week, directly on the graft. Graft length, width, and height were measured every two weeks during the treatment phase. At the end of the study, the animals were sacrificed. The grafts were measured, recovered, and processed for histology. HPV infection in tissue sections is defined by the presence of two out of three of the following features: acanthosis, koilocytosis, or parakeratosis.
The Graft Size Growth (GSG) index was our primary endpoint in this evaluation of CTC-96™. […] However, there is also a marked increase in the variance of the GSG in the high dose CTC-96™ group.
In our analysis, to measure graft size growth we used a composite index that summarizes for each mouse the growth of the two grafts borne by the animal, each from a different foreskin donor. If instead we look at the growth of each individual graft, we can see that the means, medians, or variances of the graft size growth are more alike among the three treatment groups as shown in FIG. 1. The ANOVA fails to show a treatment effect on the growth of the individual grafts.

[4] = system: HPV-11; assay: Prophylactic (topical microbicide) activity: human grafts exposed to CTC-96 for 1 hour, washed, then exposed to HPV-11; xenograft in the SCID mouse; assay type: in vivo
Procedure: Given the virucidal activity of CTC-96™, a series of experiments was performed to evaluate the prophylactic activity of the compound under conditions resembling that of the use of a topical microbicide. When using a topical microbicide the target organ is first exposed to the microbicide before exposure to the virus. Various concentrations of CTC-96™ were evaluated in a model of HPV-11-infected human xenograft in the SCID mouse. The human grafts were exposed to CTC-96™ for 1 hour prior to exposure to HPV-11 and engraftment. Because CTC-96™ is virucidal, it was washed off the foreskin fragments before exposure to the virus. The HPV-11-infected grafts were allowed to grow for 12 weeks. After 12 weeks, the animals were sacrificed and the grafts recovered, measured and processed. Graft size, expressed as the composite geometric mean diameter of the two grafts borne by the animal, was the primary endpoint. Histology of the grafts was examined for the presence of HPV. Grafts were also processed for detection of HPV-11 mRNAs transcripts by reverse transcriptase-polymerase chain reaction (RT-PCR).
Grafts that are not infected by HPV proliferate poorly and tend to be eliminated by the mouse's host defenses as a foreign body. The residual fibrous tissue is a scar. In order to analyze the results properly, grafts that were truly negative (graft showing a healthy human epithelium) as well as those showing a foreign body reaction or fibrous tissue were counted as negative for HPV.
Table 7 summarizes the immunocytochemistry results for the presence of HPV capsid antigen in the grafts. As the concentration of CTC-96™ increases, the number of grafts displaying either fibrous tissue or a foreign body reaction also increases. […] Again, a strong microbicidal effect of CTC-96™ is observed.

[5] = pre-treatment 50 μg/ml CTC-96, post-treatment "μg/ml CTC-96" (figure not given)
[6] = pre-treatment 50 μg/ml CTC-96, post-treatment normal medium
[7] = pre-treatment 50 μg/ml CTC-96, post-treatment placebo
[8] = pre-treatment Placebo, post-treatment 5 μg/ml CTC-96

**Q.** What does the source list for `CC(/C=C(/C)[O-])=NCCN=C(C)/C=C(/C)[O-].Cc1ncc[nH]1.Cc1ncc[nH]1.[Br-].[Co+3]` [CTC-96]?
**A.** Number of Transformed Foci, Exp. 1 [1]: 3 and 2; Number of Transformed Foci, Exp. 2 [1]: 3; Focus formation ([2]; addition of 5 μg/ml CTC-96 to the cell cultures): effectively suppressed all focus formation; Toxicity to C127 cell cultures ([2]; addition of 10 μg/ml or 20 μg/ml CTC-96 to the cell cultures): toxic; Number of Transformed Foci, Experiment 3-1 [2, 5]: 0; Number of Transformed Foci, Experiment 3-2 [2, 5]: 0; Number of Transformed Foci, Experiment 3-1 [2, 6]: 71 and 46; Number of Transformed Foci, Experiment 3-2 [2, 6]: 46 and 41; Number of Transformed Foci, Experiment 3-1 [2, 7]: 65 and 61; Number of Transformed Foci, Experiment 3-2 [2, 7]: 39 and 62; Number of Transformed Foci, Experiment 3-1 [2, 8]: 0; Number of Transformed Foci, Experiment 3-2 [2, 8]: 0; Inhibition of the virus by pretreatment of the virus (microbicidal effect) ([2]; pretreatment of BPV-1 with 50 μg/ml CTC-96): 50-60%; Graft Size Growth, Median ([3]; CTC-96 0.1% ointment): 60.51%; Graft Size Growth, Means ± SD ([3]; CTC-96 0.1% ointment): 64.53 ± 41.92%; Graft Size Growth, Median ([3]; CTC-96 1% ointment): 52.03%; Graft Size Growth, Means ± SD ([3]; CTC-96 1% ointment): 91.39 ± 127.84%; Effect on the growth of HPV-11-induced papillomas ([3]; mouse, in vivo): no detectable effect; Histology: grafts Negative for HPV (percent) ([4]; CTC-96 0.05%): 30%; Histology: grafts Positive for HPV (number) ([4]; CTC-96 0.05%): 16; Histology: grafts Positive for HPV (percent) ([4]; CTC-96 0.05%): 73%; Immunocytochemistry (HPV capsid antigen): grafts Negative (percent) ([4]; CTC-96 0.05%): 48%; Immunocytochemistry (HPV capsid antigen): grafts Positive (number) ([4]; CTC-96 0.05%): 12; Immunocytochemistry (HPV capsid antigen): grafts Positive (percent) ([4]; CTC-96 0.05%): 52%; RT-PCR (HPV-11 mRNA): grafts Negative (number) ([4]; CTC-96 0.05%): 9; RT-PCR (HPV-11 mRNA): grafts Negative (percent) ([4]; CTC-96 0.05%): 39%; RT-PCR (HPV-11 mRNA): grafts Positive (number) ([4]; CTC-96 0.05%): 14; RT-PCR (HPV-11 mRNA): grafts Positive (percent) ([4]; CTC-96 0.05%): 61%; Immunocytochemistry (HPV capsid antigen): grafts Negative (number) ([4]; CTC-96 0.05%, foreign body/fibrous counted as negative): 11; Histology: grafts Negative for HPV (number) ([4]; CTC-96 0.2%): 14; Histology: grafts Negative for HPV (percent) ([4]; CTC-96 0.2%): 67%; Histology: grafts Positive for HPV (number) ([4]; CTC-96 0.2%): 7; Histology: grafts Positive for HPV (percent) ([4]; CTC-96 0.2%): 33%; Immunocytochemistry (HPV capsid antigen): grafts Negative (number) ([4]; CTC-96 0.2%): 15; Immunocytochemistry (HPV capsid antigen): grafts Negative (percent) ([4]; CTC-96 0.2%): 71%; Immunocytochemistry (HPV capsid antigen): grafts Positive (number) ([4]; CTC-96 0.2%): 6; Immunocytochemistry (HPV capsid antigen): grafts Positive (percent) ([4]; CTC-96 0.2%): 29%; RT-PCR (HPV-11 mRNA): grafts Negative (number) ([4]; CTC-96 0.2%): 17; RT-PCR (HPV-11 mRNA): grafts Negative (percent) ([4]; CTC-96 0.2%): 81%; RT-PCR (HPV-11 mRNA): grafts Positive (number) ([4]; CTC-96 0.2%): 4; RT-PCR (HPV-11 mRNA): grafts Positive (percent) ([4]; CTC-96 0.2%): 19%; Histology: grafts Negative for HPV (number) ([4]; CTC-96 1%): 22; Histology: grafts Negative for HPV (percent) ([4]; CTC-96 1%): 100%; Histology: grafts Positive for HPV (number) ([4]; CTC-96 1%): 0; Histology: grafts Positive for HPV (percent) ([4]; CTC-96 1%): 0%; Immunocytochemistry (HPV capsid antigen): grafts Negative (number) ([4]; CTC-96 1%): 22; Immunocytochemistry (HPV capsid antigen): grafts Negative (percent) ([4]; CTC-96 1%): 100%; Immunocytochemistry (HPV capsid antigen): grafts Positive (number) ([4]; CTC-96 1%): 0; Immunocytochemistry (HPV capsid antigen): grafts Positive (percent) ([4]; CTC-96 1%): 0%; RT-PCR (HPV-11 mRNA): grafts Negative (number) ([4]; CTC-96 1%): 14; RT-PCR (HPV-11 mRNA): grafts Negative (percent) ([4]; CTC-96 1%): 78%; RT-PCR (HPV-11 mRNA): grafts Positive (number) ([4]; CTC-96 1%): 4; RT-PCR (HPV-11 mRNA): grafts Positive (percent) ([4]; CTC-96 1%): 22%; Graft size (composite geometric mean diameter) versus control, FIG. 2 ([4]; all CTC-96 concentrations, 12 weeks): dramatic and highly statistically significant microbicidal effect; Histology: grafts Negative for HPV (number) ([4]; grafts pre-exposed to CTC-96 0.05%, foreign body/fibrous counted as negative): 7

— patent US20070142348A1, “Microbicidal, prophylactic and therapeutic effect of ctc-96 on papilloma viruses” (REDOX PHARMACEUTICAL CORPORATION, AUDUBON […] AND […], priority 2003, published 2007)
